Measured values taken from ChEMBL document CHEMBL6134883, “Novel Piperidinylpyridinylcarbonitrile Derivatives as QPCT and QPCTL Inhibitors for Treating Cancer” (ACS Med Chem Lett, 2025).

assay: Inhibition of N-terminal His/DDK-tagged recombinant human QPCTL extracted from HEK293T cells using QLLFNKTKSVEFTFC as substrate preincubated for 10 mins followed by substrate addition measured after 40 mins by MALDI-TOF MS analysis; type: cell-free

IC50, 1 nM:
Cn1cnnc1C1(F)CCN(c2c(C#N)cc(C(C)(C)O)nc2-c2cnc3nn(C(C)(C)C)c(Cl)c3c2)CC1
Cc1ccccc1-c1ccc2c(-c3nccc(C#N)c3N3CCC(F)(c4nncn4C)CC3)cnn2n1
Cn1cnnc1C1(F)CCN(c2c(C#N)ccnc2-c2cnn3nc(-c4cccc(Cl)c4)ccc23)CC1
Cn1cnnc1C1(F)CCN(c2c(C#N)cc(C(F)(F)F)nc2-c2cnc3nc(C(C)(C)C)oc3c2)CC1
Cc1ccc(-c2ccc3c(-c4nccc(C#N)c4N4CCC(F)(c5nncn5C)CC4)cnn3n2)c(C)c1
Cn1cnnc1C1(F)CCN(c2c(C#N)cc(C3CC3(F)F)nc2-c2cnc3nn(C(C)(C)C)cc3c2)CC1 (stereo unspecified)
